{"source": "patent US20120128646A1", "about": "“METHODS AND COMPOSITIONS FOR THE TREATMENT OF AUTOIMMUNE DISEASE” (priority 2009, published 2012)", "key": {"[1]": {"biological_target": "WE14 peptide (…), natural cleavage product of chromogranin A (mouse)", "assay": "cell-based or functional assay"}, "T cell clone BDC-2.5 [2]": {"tested_on": "T cell clone BDC-2.5", "settings": "Yoshida et al 2002; cited from earlier work"}, "soluble IA^g7": {"tested_on": "soluble IA^g7", "assay": "Peptide binding to IA^g7: competition with biotinylated HEL peptide", "design": "species or system NOD mouse", "settings": "competition with biotinylated pHEL 11 μM, pH 5.6, overnight", "source_text": "FIG. 15B: A series of ChgA peptides tested for their ability to compete with a biotinylated HEL peptide for binding to soluble IA^g7. pS3-positive control peptide. IE^k moth cytochrome c-negative control peptide. N=2. Y axis: Percent of IA^g7-bound biotinylated HEL peptide as compared to IE^k. X axis: Log concentration of inhibitor peptide.\nIn order to confirm the unique binding register of the WE14 peptide, a series of peptides comprising N-terminal extensions and/or C-terminal deletions of WE14 were evaluated for their ability to stimulate the BDC-2.5 T cell clone (FIG. 6a) or to bind to IA^g7. See, FIG. 15A. […] See, FIG. 15B. Further, a pS3 mimotope was used as the positive control peptide and an irrelevant peptide from moth cytochrome c, pMCC, was the negative control peptide. The data were analyzed to determine the stimulatory or binding capacity of the peptides relative to WE14. See, FIG. 15C.\nSoluble IA^g7 with covalently attached pHEL was treated with thrombin to cleave the linker attaching the peptide to the IA^g7 β chain. Kozono et al., “Production of soluble MHC class II proteins with covalently bound single peptides” Nature 369:151-154 (1994). Samples (0.5 μg) were incubated with a soluble biotinylated version of pHEL, Biotin-GGGMKRHGLDNYRGYSL (SEQ ID NO: 56) (11 μM), either alone or in the presence of various concentrations of potential competitors peptides, in 15 μL of pH 5.6 buffer overnight at room temperature. The sample was diluted to 100 μL of PBS in a well of a 96-well ELISA plate coated with an anti-IA^g7 monoclonal antibody, OX-6 (BD Pharmaceuticals). The captured IA^g7 was washed several times with PBS and the bound bio-pHEL detected with alkaline phosphatase coupled Extravadin (Sigma) and […]."}, "T cell clone BDC-10.1 [3]": {"tested_on": "T cell clone BDC-10.1", "assay": "IFNγ production by T cell clone in antigen assay (ELISA)", "format": "cell-based, NOD mouse", "settings": "peptide or preparation as antigen", "source_text": "(§1) The T cell clones are maintained in culture by periodic re-stimulation with irradiated NOD splenocytes and islet cells or β-membrane. To assay for antigen, resting responder T cells (i.e., for example, the cells at the end of the two-week restimulation period) are co-cultured for 24 hr with elicited peritoneal macrophages (PEC) as APC and either a test sample or control antigen. Control antigen will be in the form of islet cells or the whole-cell membrane fraction (i.e., for example, a β-membrane fraction). As described above, unlysed β-membrane is stored in aliquots at −80° C. for this purpose. Negative controls include responder cells alone and responders plus APC.\n(§2) At the end of the culture period, supernatants are collected from the cultures and IFNγ production is measured by ELISA. Wells positive for IFNγ are indicative of T cells responding to antigen; the amount of cytokine produced is calculated from a standard curve and is directly proportional to the amount of antigen present.\n(§3) Antigenicity of islet cells, cellular and biochemical fractions, peptides, or insect cells expressing IA^g7-peptide constructs, was assessed through responses of T cell clones or hybridomas made by fusing T cell clones to the TCR^− version of T cell lymphoma, BW5147. White et al., “Two better cell lines for making hybridomas expressing specific T cell receptors” J Immunol 143:1822-1825 (1989). T cell clone cultures typically contained 2×10^4 responder T cells, 2.5×10^4 NOD peritoneal exudate cells (PEC) as APC, and antigen (SEC/IEX fractions, peptides, islet cells); all assays were performed with β-Mem as a positive control. IFNγ was measured by ELISA of culture supernatants. For cultures with T cell hybridomas, antigen/MHC activation was assessed by IL-2 production measured by a bioassay using the HT-2 T cell line. Walker et al., “Antigenspecific. I region-restricted interactions in vitro between tumor cell lines and T cell hybridomas” J Immunol 128:2164-2169 (1982). Synthetic peptides were either produced in the Molecular Resource Center at National Jewish Health or obtained from CHI Scientific, Maynard, Mass."}, "T cell clone BDC-5.10.3": {"tested_on": "T cell clone BDC-5.10.3", "assay": "IFNγ production by T cell clone in antigen assay (ELISA)", "format": "cell-based, NOD mouse", "settings": "peptide or preparation as antigen", "source_text": "as §1, §2, §3"}, "T cell clone BDC-2.5 [4]": {"tested_on": "T cell clone BDC-2.5", "assay": "IFNγ production by T cell clone in antigen assay (ELISA)", "format": "cell-based, NOD mouse", "settings": "peptide or preparation as antigen", "source_text": "as §1, §2, §3"}, "[5]": {"tested_on": "BDC-5.10.3 T cell hybridoma", "assay": "IL-2 production by T cell hybridoma stimulated with ICAM/B7 insect cells displaying IA^g7-peptide", "format": "cell-based, mouse", "settings": "covalent IA^g7-peptide complex on B7/ICAM insect cells; 24 hrs", "experimental": "(§4) FIG. 13C: Three BDC T cell hybridomas stimulated in culture either with: i) immobilized H597 anti-TCR Cβ Mab; ii) ICAM/B7 expressing SF9 cells infected with virus encoding IA^g7 with a HEL peptide; or ii) ICAM/B7 expressing SF9 cells infected with virus encoding IA^g7 with pS3. IL-2 production was assayed after 24 hrs.\n(§5) T cell hybridomas bearing TCR from either the BCD-2.5, BDC-10.1 or BDC-5.10.3 T cell clones were tested for their ability to recognize the covalent IA^g7-p53 complex using B7/ICAM-expressing insect cells as artificial APCs. See, FIG. 13C; Crawford et al., “Mimotopes for alloreactive and conventional T cells in a peptide-MHC display library” PloS Biol 2:E90 (2004); and Crawford et al., “Use of baculovirus MHC/peptide display libraries to characterize T-cell receptor ligands” Immunol Rev 210: 156-170 (2006).\nas §3"}, "[6]": {"tested_on": "BDC-10.1 T cell hybridoma", "assay": "IL-2 production by T cell hybridoma stimulated with ICAM/B7 insect cells displaying IA^g7-peptide", "format": "cell-based, mouse", "settings": "covalent IA^g7-peptide complex on B7/ICAM insect cells; 24 hrs", "experimental": "as §4, §5, §3"}, "BDC-2.5 T cell hybridoma": {"tested_on": "BDC-2.5 T cell hybridoma", "assay": "IL-2 production by T cell hybridoma stimulated with ICAM/B7 insect cells displaying IA^g7-peptide", "format": "cell-based, mouse", "settings": "covalent IA^g7-peptide complex on B7/ICAM insect cells; 24 hrs", "experimental": "as §4, §5, §3"}, "BDC-2.5 TCR": {"tested_on": "BDC-2.5 TCR", "assay": "Binding of fluorescent multimeric soluble BDC-2.5 TCR to IA^g7-peptide on insect cells (flow cytometry)", "design": "species or system mouse", "settings": "oligomerized", "source_text": "FIG. 13B: Use of a fluorescent, oligomerized, soluble BDC-2.5 TCR to enrich from the library a virus encoding an IA^g7-mimotope (i.e., for example, pS3) that forms a strong ligand with a BDC-2.5 TCR.\nThe amino acids at p1, p2, p3, p5, p7 and p8 were fully randomized to all 20 amino acids. See, FIG. 13A. Insect cells were infected with the library at a multiplicity of infection of <1 such that most infected cells expressed a single member of the library. The few infected cells expressing an IA^g7-peptide combination capable of binding a fluorescent, soluble, multimeric version of BDC-2.5 TCR were isolated using flow cytometry. See, FIG. 13B, panel 1). These cells were used to create a new enriched viral stock. […]\nThe PCR DNA fragment encoding the library was cloned directly into baculovirus DNA already encoding the IA^g7 genes, attached via a linker to the N-terminus of the β chain. […] Insect cells infected with the library at a multiplicity of infection of <1 were analyzed by flow cytometry for cells that expressed IA^g7 (OX-6 Mab, BD-Pharmingen) and also bound a multivalent TCR reagent consisting of the soluble BDC-2.5 TCR captured by a biotinylated anti-Cα Mab, ADO-304, bound to Alexafluor-647 labeled streptavidin (Molecular Probes). […] The peptide sequence encoded in the positive clones was determined."}, "T cell clone PD-12.4.4": {"tested_on": "T cell clone PD-12.4.4", "assay": "IFNγ production by insulin-reactive control T cell clone (ELISA)", "format": "cell-based, NOD mouse", "settings": "negative control clone", "source_text": "as §1, §2\nAntigenicity of islet cells, cellular and biochemical fractions, peptides, or insect cells expressing IA^g7-peptide constructs, was assessed through responses of T cell clones or hybridomas made by fusing T cell clones to the TCR^− version of T cell lymphoma, BW5147. […] IFNγ was measured by ELISA of culture supernatants. […]"}, "T cell clone BDC-10.1 [7]": {"tested_on": "T cell clone BDC-10.1", "settings": "Yoshida et al 2002; cited from earlier work"}}, "note": "Entries after “also recorded” stand apart in the source; their conditions may differ.", "data": [{"substance": "TCR of the T cell clone BDC-2.5 (on the T cell clone or on a hybridoma bearing this TCR)", "values": [{"measurement": "percentage of maximal IFN-γ response at 100 mg/ml β-membrane (% of maximal IFN-γ response)", "setting": "[1]", "result": 15}, {"measurement": "potency in activating the BDC clones, relative to the pS3 mimotope (fold less potent than pS3)", "setting": "[1]", "result": 1000}]}, {"substance": "HRPIWARMD [peptide mimotope of Yoshida et al 2002]", "values": [{"measurement": "Mimotope activation of BDC-2.5", "setting": "T cell clone BDC-2.5 [2]", "result": "highly stimulatory; also recorded: activate"}]}, {"substance": "EDKRWSRMD [ChgA aa354-362; ED9 = WD5 extended with EDKR]", "values": [{"measurement": "IA^g7 binding, result in words", "setting": "soluble IA^g7", "result": "did not bind"}, {"measurement": "Stimulation of T cell clone BDC-10.1 (IFNγ response), result in words", "setting": "T cell clone BDC-10.1 [3]", "result": "did not stimulate"}, {"measurement": "Stimulation of T cell clone BDC-5.10.3 (IFNγ response), result in words", "setting": "T cell clone BDC-5.10.3", "result": "did not stimulate"}, {"measurement": "Stimulation of T cell clone BDC-2.5 (IFNγ response), result in words", "setting": "T cell clone BDC-2.5 [4]", "result": "did not stimulate"}, {"measurement": "Stimulation of T cell clone BDC-2.5 (IFNγ response), result in words", "setting": "T cell clone BDC-2.5 [4]; listed as ED9", "result": "failed to stimulate"}]}, {"substance": "RLGLWVRME [mimotope from baculovirus IA^g7-peptide library]", "values": [{"measurement": "IA^g7 binding, result in words", "setting": "soluble IA^g7", "result": "higher affinity"}, {"measurement": "Activation of BDC-5.10.3 hybridoma (IL-2 production)", "setting": "[5]", "result": "maximally activated"}, {"measurement": "Activation of BDC-10.1 hybridoma (IL-2 production)", "setting": "[6]", "result": "maximally activated"}, {"measurement": "Activation of BDC-2.5 hybridoma (IL-2 production)", "setting": "BDC-2.5 T cell hybridoma", "result": "maximally activated"}, {"measurement": "Binding of IA^g7-mimotope to BDC-2.5 TCR", "setting": "BDC-2.5 TCR", "result": "strong ligand"}, {"measurement": "Stimulation of T cell clone BDC-10.1 (IFNγ response), result in words", "setting": "T cell clone BDC-10.1 [3]", "result": "strongly stimulated"}, {"measurement": "Stimulation of T cell clone BDC-10.1 (IFNγ response), result in words", "setting": "T cell clone BDC-10.1 [3]; listed as pS3", "result": "maximally"}, {"measurement": "Stimulation of T cell clone BDC-5.10.3 (IFNγ response), result in words", "setting": "T cell clone BDC-5.10.3", "result": "strongly stimulated"}, {"measurement": "Stimulation of T cell clone BDC-5.10.3 (IFNγ response), result in words", "setting": "T cell clone BDC-5.10.3; listed as pS3", "result": "maximally"}, {"measurement": "Stimulation of T cell clone BDC-2.5 (IFNγ response), result in words", "setting": "T cell clone BDC-2.5 [4]", "result": "strongly stimulated"}, {"measurement": "Stimulation of T cell clone BDC-2.5 (IFNγ response), result in words", "setting": "T cell clone BDC-2.5 [4]; listed as pS3", "result": "maximally"}, {"measurement": "Response of insulin-reactive T cell clone PD-12.4.4 (IFNγ), result in words", "setting": "T cell clone PD-12.4.4", "result": "not"}]}, {"substance": "HIPIWARMD [peptide mimotope of Yoshida et al 2002]", "values": [{"measurement": "Mimotope activation of BDC-10.1", "setting": "T cell clone BDC-10.1 [7]", "result": "activate"}]}, {"substance": "TCR of the T cell clone BDC-10.1 (on the T cell clone or on a hybridoma bearing this TCR)", "values": [{"measurement": "potency in activating the BDC clones, relative to the pS3 mimotope (fold less potent than pS3)", "setting": "[1]", "result": 1000}]}, {"substance": "SHLVEALYLVCGERG [insulin peptide, reference compound]", "values": [{"measurement": "Response of insulin-reactive T cell clone PD-12.4.4 (IFNγ), result in words", "setting": "T cell clone PD-12.4.4", "result": "responded"}]}]}
